Biological target: ATP-binding cassette sub-family C member 2 (Homo sapiens, UniProt Q92887)
Assay: TP_TRANSPORTER: uptake in membrane vesicle from MRP2-expressing MDCKII cells
Assay type: functional, cell membranes
Details: dog, mdck-ii

Sequence of ATP-binding cassette sub-family C member 2 (Q92887 whole entry): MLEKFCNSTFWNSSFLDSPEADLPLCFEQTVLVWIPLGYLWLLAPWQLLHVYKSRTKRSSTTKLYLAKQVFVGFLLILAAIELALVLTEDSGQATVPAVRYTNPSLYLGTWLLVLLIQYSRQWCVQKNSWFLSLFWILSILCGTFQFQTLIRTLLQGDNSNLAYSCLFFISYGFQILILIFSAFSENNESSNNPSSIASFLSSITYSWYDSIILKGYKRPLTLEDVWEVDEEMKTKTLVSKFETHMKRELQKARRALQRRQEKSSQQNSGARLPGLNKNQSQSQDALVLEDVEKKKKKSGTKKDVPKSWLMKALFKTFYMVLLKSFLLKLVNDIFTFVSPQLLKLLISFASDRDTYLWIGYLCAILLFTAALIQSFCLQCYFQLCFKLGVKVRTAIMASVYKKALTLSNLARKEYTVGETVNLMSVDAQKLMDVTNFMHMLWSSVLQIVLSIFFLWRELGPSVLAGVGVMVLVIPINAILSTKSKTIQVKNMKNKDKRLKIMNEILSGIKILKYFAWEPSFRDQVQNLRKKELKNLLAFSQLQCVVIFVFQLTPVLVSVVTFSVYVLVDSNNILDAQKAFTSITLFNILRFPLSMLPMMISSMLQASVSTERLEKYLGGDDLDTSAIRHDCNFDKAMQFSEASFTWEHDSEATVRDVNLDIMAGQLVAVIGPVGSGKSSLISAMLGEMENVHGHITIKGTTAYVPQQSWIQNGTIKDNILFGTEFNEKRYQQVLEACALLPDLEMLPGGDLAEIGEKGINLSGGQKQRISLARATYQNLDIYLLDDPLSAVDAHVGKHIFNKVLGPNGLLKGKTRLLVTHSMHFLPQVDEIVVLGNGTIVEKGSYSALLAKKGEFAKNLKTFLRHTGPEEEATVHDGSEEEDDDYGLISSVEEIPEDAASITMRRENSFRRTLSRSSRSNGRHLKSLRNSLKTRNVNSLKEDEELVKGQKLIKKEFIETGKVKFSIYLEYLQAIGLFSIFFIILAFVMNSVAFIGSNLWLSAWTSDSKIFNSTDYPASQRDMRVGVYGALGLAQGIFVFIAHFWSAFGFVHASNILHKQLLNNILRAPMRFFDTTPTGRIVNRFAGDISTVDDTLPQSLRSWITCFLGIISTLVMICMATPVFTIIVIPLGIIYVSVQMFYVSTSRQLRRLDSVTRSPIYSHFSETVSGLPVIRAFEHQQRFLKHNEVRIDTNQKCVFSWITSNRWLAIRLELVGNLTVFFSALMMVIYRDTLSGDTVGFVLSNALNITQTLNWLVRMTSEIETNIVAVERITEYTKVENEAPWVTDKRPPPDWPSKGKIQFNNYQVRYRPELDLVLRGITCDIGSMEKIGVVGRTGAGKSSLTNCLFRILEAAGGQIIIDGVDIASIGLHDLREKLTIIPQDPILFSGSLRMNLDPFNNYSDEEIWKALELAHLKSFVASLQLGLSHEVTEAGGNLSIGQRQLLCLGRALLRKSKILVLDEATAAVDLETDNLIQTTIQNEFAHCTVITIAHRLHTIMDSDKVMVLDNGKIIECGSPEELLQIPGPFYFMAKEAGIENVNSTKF

Activity: substrate []
SMILES: O=C(O[C@@H]1Cc2c(O)cc(O)cc2O[C@@H]1c1ccc(O)c(O)c1)c1cc(O)c(O)c(O)c1 [EPICATECHIN GALLATE]

Source: ChEMBL document CHEMBL2073900, “Cellular uptake and efflux of the tea flavonoid (-)epicatechin-3-gallate in the human intestinal cell line Caco-2” (J Pharmacol Exp Ther, 2003)
